Assay [1] addresses T1, WzcCDΔC (Escherichia coli, UniProt P76387, K540M).
T1 sequence (P76387 447-704 K540M limits assumed): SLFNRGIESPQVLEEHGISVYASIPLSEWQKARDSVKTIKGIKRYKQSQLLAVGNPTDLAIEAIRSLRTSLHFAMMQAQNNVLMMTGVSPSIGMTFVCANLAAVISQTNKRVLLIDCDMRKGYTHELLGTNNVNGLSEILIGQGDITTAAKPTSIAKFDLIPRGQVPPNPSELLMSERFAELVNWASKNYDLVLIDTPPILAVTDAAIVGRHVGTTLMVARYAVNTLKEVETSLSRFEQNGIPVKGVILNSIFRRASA
As to the kind of experiment: isothermal titration calorimetry, one-site model. Type of assay: binding. Background: Isothermal titration calorimetry measures the heat released or taken up as one component is titrated into another.

For assay [2], the target named is T2, WzcCDΔC (Escherichia coli, UniProt P76387).
T2 sequence (P76387 447-704 limits assumed): T1 sequence (P76387 447-704 K540M limits assumed) with M94K
Kind of assay: isothermal titration calorimetry, one-site model. Type of assay: binding.

Residue numbers refer to the chain shown, from its start.

Consider one molecule from paper PMC8457666 (Science Advances, 2021).

Broadly, the Kd is the constant that tells how readily two partners part at equilibrium. A low value points to tighter binding. For `Nc1ncnc2c1ncn2[C@@H]1O[C@H](COP(=O)(O)OP(=O)(O)O)[C@@H](O)[C@H]1O` [ADP], the values for the Kd in assay [1] and in assay [2] were 500 ± 200 nM and 2600 ± 1100 nM, respectively.
